PubChem BioAssay AID248 (DTP/NCI, 2004)
Where “and” joins values, the source holds several entries; their conditions need not be identical. Equal values may be shown once. Inconclusive results and toxic doses are left out. Cut-off read from the data, not from the text of the source: active = T/C of 150% or more; inactive = T/C below 125%.

Tested on: L1210 leukemia ip in BDF1 mice, survival T/C
Assay: NCI In Vivo Anticancer Drug Screen. Data for tumor model L1210 Leukemia (intraperitoneal) in B6D2F1 (BDF1) mice
Details: endpoint: mean survival time, higher = longer survival
Outline: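 Mice bearing the transplanted tumor received compound or vehicle. Survival of the treated group was divided by that of the vehicle-treated control group to give the ratio.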

[1] = dose: 100.0 mg/kg/injection, schedule: Q01DX001 (ip), vehicle: saline
[2] = dose: 200.0 mg/kg/injection, schedule: Q01DX001 (ip), vehicle: saline
[3] = dose: 400.0 mg/kg/injection, schedule: Q01DX001 (ip), vehicle: saline
[4] = dose: 100.0 mg/kg/injection, schedule: Q04DX002 (ip), vehicle: Klucel (hydroxypropylcellulose) (HPC)
[5] = dose: 200.0 mg/kg/injection, schedule: Q04DX002 (ip), vehicle: Klucel (hydroxypropylcellulose) (HPC)
[6] = dose: 400.0 mg/kg/injection, schedule: Q04DX002 (ip), vehicle: Klucel (hydroxypropylcellulose) (HPC)
[7] = dose: 50.0 mg/kg/injection, schedule: Q01DX009 (ip), vehicle: saline with Tween-80
[8] = dose: 100.0 mg/kg/injection, schedule: Q01DX009 (ip), vehicle: saline with Tween-80
[9] = dose: 200.0 mg/kg/injection, schedule: Q01DX009 (ip), vehicle: saline with Tween-80
[10] = dose: 100.0 mg/kg/injection, schedule: Q04DX003 (ip), vehicle: saline with Tween-80
[11] = dose: 200.0 mg/kg/injection, schedule: Q04DX003 (ip), vehicle: saline with Tween-80
[12] = dose: 400.0 mg/kg/injection, schedule: Q01DX009 (ip), vehicle: saline with Tween-80
[13] = dose: 100.0 mg/kg/injection, schedule: Q04DX003 (ip), vehicle: Klucel (hydroxypropylcellulose) (HPC)
[14] = dose: 200.0 mg/kg/injection, schedule: Q04DX003 (ip), vehicle: Klucel (hydroxypropylcellulose) (HPC)
[15] = dose: 400.0 mg/kg/injection, schedule: Q04DX003 (ip), vehicle: Klucel (hydroxypropylcellulose) (HPC)
[16] = dose: 6.25 mg/kg/injection, schedule: Q01DX009 (ip), vehicle: saline
[17] = dose: 12.5 mg/kg/injection, schedule: Q01DX009 (ip), vehicle: saline
[18] = dose: 50.0 mg/kg/injection, schedule: Q01DX001 (ip), vehicle: saline

Measured: T/C

N#Cc1ccc(O)c(N)c1
inactive: [1] 95 % of control | [2] 90 % of control | [3] 90 % of control

C=CC1=C(C)C(=O)N/C1=C\c1[nH]c(Cc2[nH]c(/C=C3/NC(=O)C(C(C)SC(C)=O)=C3C)cc2CCC(=O)O)c(CCC(=O)O)c1C (stereo not drawn)
inactive: [4] 101 % of control | [5] 108 % of control | [6] 97 % of control

CCC(C)(C)C(=O)O
inactive: [7] 104 % of control | [8] 98 % of control | [9] 98 % of control

O=C(/C=C/c1ccccc1)NC(=S)Nc1ccccc1C(F)(F)F
inactive: dose: 12.5 mg/kg/injection, schedule: Q01DX009 (ip), vehicle: saline with Tween-80 93 % of control and 100 % of control | dose: 100.0 mg/kg/injection, schedule: Q01DX001 (ip), vehicle: saline with Tween-80 92 % of control | dose: 100.0 mg/kg/injection, schedule: Q04DX002 (ip), vehicle: saline with Tween-80 91 % of control | [10] 103 % of control | dose: 200.0 mg/kg/injection, schedule: Q01DX001 (ip), vehicle: saline with Tween-80 97 % of control | dose: 200.0 mg/kg/injection, schedule: Q04DX002 (ip), vehicle: saline with Tween-80 95 % of control and 101 % of control | [11] 91 % of control | dose: 400.0 mg/kg/injection, schedule: Q01DX001 (ip), vehicle: saline with Tween-80 112 % of control | [12] 86 % of control | dose: 400.0 mg/kg/injection, schedule: Q04DX002 (ip), vehicle: saline with Tween-80 93 % of control and 95 % of control | dose: 400.0 mg/kg/injection, schedule: Q04DX003 (ip), vehicle: saline with Tween-80 91 % of control

OCC1OC(n2cnc3c([Se])ncnc32)C(O)C1O (stereo not drawn)
inactive: dose: 100.0 mg/kg/injection, schedule: Q01DX005 (ip), vehicle: saline 105 % of control

CCCN1C(c2ccccc2)=CN(Cc2ccccc2)C=C1c1ccccc1
inactive: [4] 95 % of control | [5] 103 % of control | [6] 106 % of control

COc1ccc(NC(=O)Oc2ccc(F)cc2)c(OC)c1
inactive: dose: 100.0 mg/kg/injection, schedule: Q01DX009 (ip), vehicle: Klucel (hydroxypropylcellulose) (HPC) 89 % of control | dose: 200.0 mg/kg/injection, schedule: Q01DX009 (ip), vehicle: Klucel (hydroxypropylcellulose) (HPC) 101 % of control | dose: 400.0 mg/kg/injection, schedule: Q01DX009 (ip), vehicle: Klucel (hydroxypropylcellulose) (HPC) 94 % of control

CN(C)c1ccc(-c2c3cc(O)c(=O)cc-3oc3cc(O)c(O)cc23)cc1
inactive: dose: 50.0 mg/kg/injection, schedule: Q04DX003 (ip), vehicle: saline with Tween-80 95 % of control | [10] 90 % of control | [11] 87 % of control

Fc1c(F)c(Oc2c(F)c(F)c(C(F)(F)F)c(F)c2F)c(F)c(Oc2c(F)c(F)c(C(F)(F)F)c(F)c2F)c1F
inactive: dose: 100.0 mg/kg/injection, schedule: Q01DX001 (ip), vehicle: Klucel (hydroxypropylcellulose) (HPC) 96 % of control | [13] 98 % of control | dose: 200.0 mg/kg/injection, schedule: Q01DX001 (ip), vehicle: Klucel (hydroxypropylcellulose) (HPC) 100 % of control | [14] 95 % of control | dose: 400.0 mg/kg/injection, schedule: Q01DX001 (ip), vehicle: Klucel (hydroxypropylcellulose) (HPC) 89 % of control | [15] 97 % of control

c1ccc2c(c1)C1c3cccc[n+]3C2C2C1CC1C3c4ccccc4C(C12)[n+]1ccccc13 (stereo not drawn)
inactive: dose: 1.56 mg/kg/injection, schedule: Q04DX003 (ip), vehicle: saline 100 % of control | dose: 3.12 mg/kg/injection, schedule: Q01DX009 (ip), vehicle: saline 111 % of control | dose: 3.12 mg/kg/injection, schedule: Q04DX003 (ip), vehicle: saline 96 % of control | [16] 100 % of control and 88 % of control | dose: 6.25 mg/kg/injection, schedule: Q04DX003 (ip), vehicle: saline 95 % of control | [17] 100 % of control and 102 % of control

Nc1ccc(Cl)nn1
inactive: dose: 25.0 mg/kg/injection, schedule: Q04DX002 (ip), vehicle: Klucel (hydroxypropylcellulose) (HPC) 97 % of control | dose: 50.0 mg/kg/injection, schedule: Q04DX002 (ip), vehicle: Klucel (hydroxypropylcellulose) (HPC) 97 % of control | [4] 100 % of control

O=C(Nc1ccc2ccccc2c1)C1CC1
inactive: [4] 100 % of control | [5] 107 % of control | [6] 115 % of control

Clc1ccc2c(NCCNC3CCCCC3)ccnc2c1
inactive: dose: 9.38 mg/kg/injection, schedule: Q01DX001 (ip), vehicle: saline 105 % of control | dose: 18.75 mg/kg/injection, schedule: Q01DX001 (ip), vehicle: saline 100 % of control | dose: 37.5 mg/kg/injection, schedule: Q01DX001 (ip), vehicle: saline 108 % of control

CS(=O)(=O)c1nc2ccc([N+](=O)[O-])cc2s1
inactive: dose: 25.0 mg/kg/injection, schedule: Q04DX002 (ip), vehicle: saline 107 % of control | dose: 50.0 mg/kg/injection, schedule: Q04DX002 (ip), vehicle: saline 104 % of control | dose: 100.0 mg/kg/injection, schedule: Q04DX002 (ip), vehicle: saline 100 % of control

O=C(CCCC(=O)N/N=C/c1ccccc1O)N/N=C\c1ccccc1O
inactive: [18] 87 % of control | [1] 90 % of control | [3] 90 % of control

NC(N)=N/N=C(\C=N\N=C(N)N)c1ccc(-c2ccc(C(/C=N/N=C(N)N)=N\N=C(N)N)cc2)cc1
inactive: dose: 15.0 mg/kg/injection, schedule: Q01DX Z (oral), vehicle: saline 102 % of control | dose: 30.0 mg/kg/injection, schedule: Q01DX Z (oral), vehicle: saline 96 % of control | dose: 60.0 mg/kg/injection, schedule: Q01DX Z (oral), vehicle: saline 98 % of control | dose: 120.0 mg/kg/injection, schedule: Q01DX Z (oral), vehicle: saline 100 % of control

Clc1ccc(C=Nc2cccc3ccccc23)cc1Cl
inactive: [8] 95 % of control | [9] 95 % of control | [12] 94 % of control

COc1ccc2c(C)[n+]3ccc4cc(OC)c(OC)cc4c3cc2c1 (tested in a mixture with another compound)
inactive: dose: 2.5 mg/kg/injection, schedule: Q01DX009 (ip), vehicle: saline 120 % of control | dose: 5.0 mg/kg/injection, schedule: Q01DX009 (ip), vehicle: saline 121 % of control | [16] 117 % of control | [17] 121 % of control | dose: 15.0 mg/kg/injection, schedule: Q01DX009 (ip), vehicle: saline 110 % of control | dose: 20.0 mg/kg/injection, schedule: Q01DX009 (ip), vehicle: saline 123 % of control | dose: 25.0 mg/kg/injection, schedule: Q01DX009 (ip), vehicle: saline 123 % of control | dose: 40.0 mg/kg/injection, schedule: Q01DX009 (ip), vehicle: saline 124 % of control | dose: 50.0 mg/kg/injection, schedule: Q01DX009 (ip), vehicle: saline 115 % of control | dose: 80.0 mg/kg/injection, schedule: Q01DX009 (ip), vehicle: saline 105 % of control | dose: 100.0 mg/kg/injection, schedule: Q01DX009 (ip), vehicle: saline 115 % of control | dose: 108.0 mg/kg/injection, schedule: Q01DX009 (ip), vehicle: saline 100 % of control

N#Cc1ccc(C(CCCCC(Cc2ccccc2)c2ccc(C#N)cc2)Cc2ccccc2)cc1 (stereo not drawn)
inactive: [18] 93 % of control | [2] 102 % of control | [3] 104 % of control

COC(=O)c1cc(C)[nH]c2c(C)cc3nc4ccccc4c3c12
inactive: [18] 95 % of control | [1] 98 % of control | [2] 101 % of control | [3] 104 % of control

Cc1ccc(/C(=C/c2ccc([N+](=O)[O-])cc2)C(=O)O)cc1
inactive: [13] 102 % of control | [14] 98 % of control | [15] 95 % of control

CN(C)c1ccc(/C=N/NC(=O)c2ccc(Cl)cc2)cc1
inactive: [7] 100 % of control | [8] 89 % of control
